Measured values from BindingDB's records for doi:10.1021/jm00084a013 (Upjohn Laboratories, 1992).
pKi: −log10 of the molar value.

molecular target: not listed separately; assay: Compound was evaluated for its ability to displace [3H]DPAT from 5-HT1A receptor in homogenates of bovine hippocampus

First: CCCN(CCC)C1Cc2cccc3c2n(c(=O)n3C)C1 (stereo not given)
Second: CCCCNC1Cc2cccc3[nH]c(=O)n(c23)C1 (stereo not given)
The pKi of the first is higher: 6.91 for the first, < 6.00 for the second.

molecular target: 5-hydroxytryptamine receptor 1A (Bos taurus); assay: Ability to displace [3H]-DPAT from 5-hydroxytryptamine 1A receptor in homogenates of bovine hippocampus.

First: CCCN(CCC)C1Cc2cccc3c2N(CC3)C1 (stereo not given)
Second: CCCN(CCC)C1Cc2cccc3c2N(CCC3)C1 (stereo not given)
The pKi of the first is 0.91 log units higher: 7.89 for the first, 6.98 for the second.

`O=c1[nH]c2cccc3c2n1CC(N(CC1CC1)CC1CC1)C3` (stereo not given) and `O=c1[nH]c2cccc3c2n1CC(NCC1CC1)C3` (stereo not given) are within 0.2 log units of each other in pKi: 7.02 for the first, 7.08 for the second.

Compared with `CCCN(CCC)C1Cc2cccc3c2N(C1)C(=O)C3` (stereo not given), `CCCN(CCC)C1Cc2cccc3c2N(C1)C(=O)CC3` (stereo not given) is 1.65 log units higher in pKi: 6.97 for the first, 8.62 for the second. The second binds more tightly here.

`CCCN(CCC)C1Cc2cccc3oc(=O)n(c23)C1` (stereo not given) and `CCCN(CCC)C1Cc2cccc3[nH]c(=O)c(=O)n(c23)C1` (stereo not given) cannot be ordered by pKi: < 6.00 for the first, < 6.00 for the second.

Compared with `CCCN(CCC)C1Cc2cccc3ncn(c23)C1` (stereo not given), `CCCN(CCC)C1Cc2cccc3ccn(c23)C1` (stereo not given) is 0.52 log units higher in pKi: 6.08 for the first, 6.60 for the second.

First: CCCN(CCC)C1Cc2cccc3c2N(C1)C(=O)CN3 (stereo not given)
Second: CCCN(CCC)C1Cc2cccc3nc(C)n(c23)C1 (stereo not given)
The pKi of the first is 1.96 log units higher: 7.31 for the first, 5.35 for the second.

For `CCCN(CCC)C1Cc2cccc3nc(SC)n(c23)C1` (stereo not given), the pKi was 6.76.
